In US10774071B2, “PD-1/PD-L1 inhibitors” (Gilead Sciences, Inc., priority 2018, dated 2020):

Tests used:
[1] = target: PD-1/PD-L1 (Homo sapiens (Human), UniProt Q9NZQ7); experiment: PD-1/PD-L1 biochemical protein-protein interaction assay (ALPHA); assay type: binding; conditions: 0.3 nM His tagged PD-L1, 2.5 nM biotinylated Fc-PD-1, readings of 0.064 nM are equal to or less than 0.064 nM, read-out: IC50 PD-L1-PD1
[2] = target: PD-L1 (Homo sapiens (Human), UniProt Q9NZQ7); experiment: PD-L1/PD-L1 dimerization biochemical protein-protein interaction assay (ALPHA); assay type: binding; conditions: 0.5 nM His tagged PD-L1 and 0.5 nM FLAG tagged PD-L1, Table 4A, read-out: AC50 PDL1 Dimer 1 nM
Chain of PD-L1 (Q9NZQ7 19-238): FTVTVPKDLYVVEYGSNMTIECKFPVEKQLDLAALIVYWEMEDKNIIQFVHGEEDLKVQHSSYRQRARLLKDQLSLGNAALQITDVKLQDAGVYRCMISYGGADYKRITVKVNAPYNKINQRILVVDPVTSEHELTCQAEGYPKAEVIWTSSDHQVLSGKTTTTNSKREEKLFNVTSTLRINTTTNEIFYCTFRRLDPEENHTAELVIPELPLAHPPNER
Chain of PD-L1 (Q9NZQ7 19-238): as above

Chain of PD-1/PD-L1 (Q9NZQ7 19-238): as above

Row | IC50 [1] | AC50 [2] | Structure (SMILES)
1 | ≤ 0.064 nM | 3.9 nM | COc1nc(-c2cccc(-c3cccc4c3CC[C@@H]4Nc3nc(OC)c(CN[C@H](C(=O)O)C4CC4)nc3C(F)(F)F)c2Cl)ccc1CNC[C@@H]1CCC(=O)N1 [A-101]
2 | ≤ 0.064 nM | 43.1 nM | COc1nc(-c2cccc(-c3cccc4c3CC[C@@H]4Nc3nc(OC)c(CN[C@@H](C)C(N)=O)nc3C(F)(F)F)c2Cl)ccc1CNC[C@@H]1CCC(=O)N1 [A-102]
3 | ≤ 0.064 nM | 40.2 nM | COc1nc(-c2cccc(-c3cccc4c3CC[C@@H]4Nc3nc(OC)c(CNCC(N)=O)nc3C(F)(F)F)c2Cl)ccc1CNC[C@@H]1CCC(=O)N1 [A-103]
4 | ≤ 0.064 nM | 16.6 nM | CC[C@H](NCc1nc(C(F)(F)F)c(N[C@H]2CCc3c(-c4cccc(-c5ccc(CNC[C@@H]6CCC(=O)N6)c(OC)n5)c4Cl)cccc32)nc1OC)C(=O)O [A-104]
5 | ≤ 0.064 nM | 40.6 nM | COc1nc(-c2cccc(-c3cccc4c3CC[C@@H]4Nc3nc(OC)c(CN[C@H](C(=O)O)C(C)C)nc3C(F)(F)F)c2Cl)ccc1CNC[C@@H]1CCC(=O)N1 [A-105]
6 | ≤ 0.064 nM | 5.04 nM | COc1nc(-c2cccc(-c3cccc4c3CC[C@@H]4Nc3nc(OC)c(CN[C@@H](C)C(=O)O)nc3C(F)(F)F)c2Cl)ccc1CNC[C@@H]1CCC(=O)N1 [A-106]

Further lines, the compound ahead of its results:

Row | Structure (SMILES) | IC50 [1] | AC50 [2]
7 | CNC(=O)CNCc1nc(C(F)(F)F)c(N[C@H]2CCc3c(-c4cccc(-c5ccc(CNC[C@@H]6CCC(=O)N6)c(OC)n5)c4Cl)cccc32)nc1OC [A-88] | 0.202 nM | 60.4 nM
8 | COc1nc(-c2cccc(-c3cccc4c3CC[C@@H]4Nc3nc(OC)c(CNCCC(=O)O)cc3C(F)(F)F)c2Cl)ccc1CN[C@H]1C[C@](C)(O)C1 [A-89] | 0.072 nM | 81.8 nM
9 | COc1nc(-c2cccc(-c3cccc4c3CC[C@@H]4Nc3nc(OC)c(CN[C@H](C(=O)O)C4CC4)cc3C(F)(F)F)c2Cl)ccc1CN[C@H]1C[C@](C)(O)C1 [A-90] | ≤ 0.064 nM | 21.6 nM
10 | COC[C@H](NCc1cc(C(F)(F)F)c(N[C@H]2CCc3c(-c4cccc(-c5ccc(CN[C@H]6C[C@](C)(O)C6)c(OC)n5)c4Cl)cccc32)nc1OC)C(=O)O [A-91] | ≤ 0.064 nM | 42.7 nM
11 | COc1nc(-c2cccc(-c3cccc4c3CC[C@@H]4Nc3nc(OC)c(CNC(C)(C)C(=O)O)cc3C(F)(F)F)c2Cl)ccc1CN[C@H]1C[C@](C)(O)C1 [A-92] | ≤ 0.064 nM | 15.1 nM
12 | COc1nc(-c2cccc(-c3cccc4c3CC[C@@H]4Nc3nc(OC)c(CNCCC(=O)O)nc3C(F)(F)F)c2Cl)ccc1CN[C@H]1C[C@](C)(O)C1 [A-93] | ≤ 0.064 nM | 83 nM
13 | COc1nc(-c2cccc(-c3cccc4c3CC[C@@H]4Nc3nc(OC)c(CN[C@H](C(=O)O)C4CC4)nc3C(F)(F)F)c2Cl)ccc1CN[C@H]1C[C@](C)(O)C1 [A-94] | ≤ 0.064 nM | 20.7 nM
14 | COc1nc(-c2cccc(-c3cccc4c3CC[C@@H]4Nc3nc(OC)c(CNC(C)(C)C(=O)O)nc3C(F)(F)F)c2Cl)ccc1CN[C@H]1C[C@](C)(O)C1 [A-95] | ≤ 0.064 nM | 21.2 nM
15 | COc1nc(-c2cccc(-c3cccc4c3CC[C@@H]4Nc3nc(OC)c(CN(C)[C@@H](C)C(=O)O)nc3C(F)(F)F)c2Cl)ccc1CNC[C@@H]1CCC(=O)N1 [A-96] | ≤ 0.064 nM | 3.97 nM
16 | COc1nc(-c2cccc(-c3cccc4c3CC[C@@H]4Nc3nc(OC)c(CN[C@@H](C)C(=O)N(C)C)nc3C(F)(F)F)c2Cl)ccc1CNC[C@@H]1CCC(=O)N1 [A-97] | ≤ 0.064 nM | 6.28 nM
17 | COc1nc(-c2cccc(-c3cccc4c3CC[C@@H]4Nc3nc(OC)c(CN[C@@H](C)C(N)=O)cc3C(F)(F)F)c2Cl)ccc1CNC[C@@H]1CCC(=O)N1 [A-98] | ≤ 0.064 nM | 40.3 nM
18 | COC(=O)[C@H](C)NCc1nc(C(F)(F)F)c(N[C@H]2CCc3c(-c4cccc(-c5ccc(CNC[C@@H]6CCC(=O)N6)c(OC)n5)c4Cl)cccc32)nc1OC [A-99] | 0.397 nM | 110 nM
19 | COC[C@H](NCc1nc(C(F)(F)F)c(N[C@H]2CCc3c(-c4cccc(-c5ccc(CNC[C@@H]6CCC(=O)N6)c(OC)n5)c4Cl)cccc32)nc1OC)C(=O)O [A-100] | ≤ 0.064 nM | 7.11 nM
